Usually melting point stands for the temperature, or range, at which the solid turns liquid.

Non-standard residues stand in square brackets, D forms with d. Residues, ends and D or L forms follow the SMILES beside them. ξ: configuration not given here. *: point of attachment. Boc = CC(C)(C)OC(=O)*; ξA = CC(N)C(=O)O

For 86 compounds, melting point results are on record in a melting point compilation (Tetko et al.; mined from patent text by program, amines drawn as free bases though some values may be those of a salt).

As for `CCCCc1c(C(=O)OCC)cc(O)c2ccccc12`, the melting point was 117 to 120 °C. The value for `CC1(C)Oc2ccc(I)cc2[C@@H](N2Cc3ccccc3C2=O)[C@@H]1O` (relative stereo) was 224 to 228 °C.

The compound `CC(=O)n1c(-c2ccc(C)cc2)cc2ccccc21` registered a melting point of 67 to 69 °C.

`CC(C)(c1cccc(C(F)(F)F)c1)N1C[C@H]([C@H](Cc2ccccc2)NC(=O)c2cc(C(=O)O)c3n2CCN(S(C)(=O)=O)C3)OC1=O` yielded a melting point of 147 °C. Regarding `CC(Cl)=CC(C#N)NC(=O)c1cn(C)nc1C` (stereo unspecified), the melting point lay within 113 to 114 °C. The compound `CCCCc1nn2c(c1Cc1ccc(C(=O)O)cc1)CCCC2` gave a melting point of 148 to 150 °C.

As to `c1ccc(CCCNc2ccc(-c3cc(-c4ccc(NCCCc5ccccc5)cc4)cc(-c4ccc(NCCCc5ccccc5)cc4)c3)cc2)cc1`, the melting point was determined as 105 °C. The value for `O=C(Cn1c(=O)c(=O)[nH]c2cc(C(F)(F)F)c(-n3cccc3)cc21)NCc1ccccc1` was 241 to 242 °C. Compound `O=c1nc(-c2ccc(Sc3ccc(Cl)cc3)nc2)sc2ccccc12` came in with a melting point of 222 °C.

In turn, `CCCCN(C)C(=O)CCCCCCCCCCSC1Cc2cc(O)ccc2C2CCC3(C)C(O)CCC3C12` (stereo unspecified) registered a melting point of 71 to 75 °C.

Compound `Cc1csc(NC(=O)C(C(=O)OC(C)C)=C2SCCS2)n1` came in with a melting point of 161 to 162 °C.

`CCCCCCCCCCSC(=S)N1Cc2[nH]c3ccccc3c2CC1CO` (stereo unspecified) displayed a melting point of 115 to 118 °C. `COc1c(C2CCN(CCCCNC(=O)c3ccc(-c4ccc(Cl)nn4)cc3)CC2)ccc2c1CCCC2` returned a melting point of 192 to 194 °C.

The compound `O=C(Nc1ccc(C(=O)N2CCCc3cc(F)ccc32)cc1)c1cc(Cl)cc(Cl)c1` gave a melting point of 206 °C.

The compound `COc1nc2ccc(Br)cc2cc1C(c1ccccc1)n1ccnc1` (stereo unspecified) returned a melting point of 161 to 162 °C. The value for `CCN(CC)C(=O)Nc1ccc(S(=O)(=O)N2C(=O)C(NCCCCCNC(C)=O)(c3ccccc3Cl)c3cc(Cl)ccc32)cc1` (stereo unspecified) was 195 to 198 °C; that for `CC(=NO)NC/C(F)=C\CC[C@H](N)C(=O)O` was 198 to 200 °C; that for `O=S(=O)(NC[C@@H](CO)NC(c1ccccc1)(c1ccccc1)c1ccccc1)c1ccc(Oc2ccccc2)cc1` was 67 to 70 °C. In the case of `Cc1cc(NC2=NCCN2)n(CCC(C)C)n1`, the melting point was 104 to 106 °C. The value for `Nc1ccc2c(c1)C(=O)CC2` was 168 to 171 °C; that for `CN1CCN(C2CC3C4CCC5CC6OC6CC5(C)C4CCC3(C)C2=O)CC1` (stereo unspecified) was 132 to 134 °C. The value for `CCOC(=O)C=CC=Cc1cccc([N+](=O)[O-])c1` was 100 to 101 °C. `O=C1CN(S(=O)(=O)c2ccccc2)c2ccccc2N1` gave a melting point of 183 to 185 °C. Regarding `COC(=O)CNC(=O)C(C)NC(=O)CNC(=O)CNC(=O)OC(C)(C)C` (stereo unspecified) (Boc-GG[ξA]G-OMe), the melting point was 103 to 105 °C.

`C=CCON=C(CC)C1=C(O)CC(c2c(C)c(C)c3c(c2C)CC(C)(C)C3)CC1=O` (stereo unspecified) returned a melting point of 63 to 65 °C. `CCC(=O)c1c[nH]c2c(OC)cccc2c1=O` showed a melting point of 260 to 263 °C.

In turn, `ClCCOc1ccc(Cl)c2[nH]cc(Cl)c12` yielded a melting point of 106 to 108 °C. As to `COC(=O)C1=Cc2cc(-c3ccc(C)cc3)ccc2S(=O)(=O)CC1`, the melting point was 203 to 204 °C. The value for `COc1ccc(N2N=C3c4cc(C)sc4CCCC3CC2=O)cc1` (stereo unspecified) was 136 to 138 °C; that for `Cn1cc(C#N)c(Br)c1Br` was 138 to 139 °C; that for `COc1ccc(Sc2ccnc(Nc3ccc(OCCN(C)C)cc3)n2)cc1` was 112 to 113 °C.

`CC(=O)OCOC(=O)Oc1c(Br)cc(C#N)cc1Br` displayed a melting point of 84 to 86 °C.

The compound `CCOc1cc2c(cc1OCC)C(C(S)(C#N)c1ccc(Cl)cc1)=NCC2` (stereo unspecified) registered a melting point of 157 to 160 °C. Compound `CCCc1ccc2nnc(C(=O)OCC)cc2c1` showed a melting point of 88 to 89 °C. In turn, `Cc1cc(-c2noc(C(F)(F)F)n2)cc(C)c1OCCCc1cncs1` came in with a melting point of 95 to 97 °C. Consider `CC(=O)OC1(C(C)=O)CCC2C3C=CC4=CC(=O)CCC4(C)C3C(F)CC21C` (stereo unspecified), for which the melting point was 220 to 222 °C. `CC(=Cc1ccc(Oc2cccnc2)cc1)C(=O)O` yielded a melting point of 191 to 194 °C. The value for `Cc1cc(-c2nc3ccc(CN4CCN(C)CC4)cc3c(=O)[nH]2)cc(C)n1` was 229 to 230 °C; that for `CCCCc1ccc(NC(=O)c2ccc([N+](=O)[O-])cc2)cc1` was 151 to 152 °C; that for `COC(=O)c1c(Cl)cc(Cl)cc1NC(=O)CSc1ccc(NC(=S)NCc2ccccc2)cc1` was 152 to 155 °C.

For `C1=C(c2cccc(CNCCOc3cccc4ccoc34)c2)CCC1`, the melting point was 126 °C.

Consider `O=C(Nc1c(Cl)cncc1Cl)c1ccc(OCC2CC2)c2oc3ccccc3c12`, for which the melting point came out at 242 °C. `COc1cc(Cc2cnc(NOC3CCCCO3)nc2NO)cc(OC)c1OC` (stereo unspecified) displayed a melting point of 190 to 192 °C. Compound `O=C(c1c[nH]c2cc(Oc3ccc(F)cc3)ccc12)C1CSC(c2cccnc2)N1` (stereo unspecified) gave a melting point of 189 to 191 °C. `COc1ccc(-c2ccc3cc(OC)ccc3c2)cc1` came in with a melting point of 190 °C. The value for `COc1ccc2c(c1)C(c1ccc(OCCN(C)C)cc1)c1c-2ccc2ccccc12` (stereo unspecified) was 159 to 160 °C; that for `CCOC(=O)c1nc2ccccc2c(=O)n1C` was 48 to 50 °C; that for `CN(O)C(=O)C1=Cc2cc(OCc3ccccc3)ccc2OC1` was 143 to 146 °C. `O=C(O)CCC(=O)Nc1ccc2oc(-c3ccc(O)cc3)c(O)c(=O)c2c1` registered a melting point of 256 to 257 °C. Regarding `CNc1ccc(Cl)nc1`, the melting point came to 70 °C. The compound `CCOC(=O)C1=C(C)NC(COCCN=[N+]=[N-])=C(C(=O)OC)C1c1cccc(Cl)c1Cl` (stereo unspecified) returned a melting point of 126 °C.

Turning to `NC(=O)c1c(Cl)c(-c2cccnc2)n2c1CN(S(=O)(=O)c1ccc(C(F)(F)F)cc1)CC2`, the melting point was 205 to 206 °C. Regarding `O=C(OCC1OCCS1=O)c1ccccc1` (stereo unspecified), the melting point lay in the range of 70 to 72 °C. The value for `COC(=O)C1C=CCN2C(=O)C(CCOS(C)(=O)=O)(Cc3ccccc3)C(=O)N12` (stereo unspecified) was 161 to 163 °C; that for `CCCC(c1ccc(C(=O)c2ccccc2)cc1OCc1ccc(Br)cc1)n1ccnc1` (stereo unspecified) was 70 to 72 °C. With `CC(=O)Oc1cccc2c1NC(O)C1CCCN1C2=O` (stereo unspecified), the melting point lay in the range of 143 to 145 °C. The value for `CC(=O)Nc1ccc2c(c1)CC2OC#N` (stereo unspecified) was 163 to 168 °C; that for `N#CCC(=O)c1ccc[nH]1` was 79 to 81 °C; that for `CC(C)(C)OC(=O)N1CCc2c(n(CCOc3ccccc3)c3c(Cl)c(Cl)ccc23)CC1` was 138 to 140 °C.

`Cc1cccc(CC(Nc2ccccc2)C(=O)NC(C#N)COCc2ccc(F)c(C(=O)O)c2)c1` (stereo unspecified) had a melting point of 107 to 108 °C. The value for `CCc1cnc2c(NC(=O)c3c(Cl)cccc3Cl)cccc2c1CCBr` was 187 to 188 °C; that for `CCOc1ccc(-c2c(C)c3cc(O)ccc3n2Cc2ccc(OCCN3CCCCC3)cc2)cc1` was 173 to 175 °C. For `COC(=O)c1c(Cc2ccc(S(=O)(=O)NCCO)cc2)c(=O)c2ccc(Cl)cc2n1-c1ccccc1`, the melting point fell in the range of 192 to 193 °C. The value for `Cc1cc(C(=O)N2Cc3cccn3Cc3ccccc32)ccc1NC(=O)c1ccccc1C` was 125 to 130 °C; that for `CC(CS(=O)(=O)c1ccccc1)C1CCC2C3CC=C4C(C)(C)C(O)CCC4(C)C3CCC12C` (stereo unspecified) was 176 to 181 °C. The value for `O=C(O)C(=O)N1CCC(Cc2ccccc2)CC1` was 109 to 112 °C; that for `COc1ccc2c(c1)N(C(C)=O)CCO2` was 76 to 77 °C; that for `O=c1c2c(Cl)cc(Cl)cc2n(Cc2ccccc2)c(=O)n1Cc1ccccc1F` was 126 to 130 °C.

In turn, `CCn1cc(C(=O)c2ccccc2)c(=O)c2cn(C)nc21` showed a melting point of 217 to 218 °C. The value for `CCC(O)c1cc(C)nc(Oc2c(C)cc(C)cc2C)c1C` (stereo unspecified) was 119 to 120 °C. Take `O=c1nc(-c2nccs2)sc2ccccc12`: the melting point was in the range of 229 to 230 °C. The value for `COc1ccc2nc(NC(=O)C(CC3CCCC3)c3ccc(S(=O)(=O)N4CCN(C(C)=O)CC4)cc3)sc2n1` (stereo unspecified) was 215 to 217 °C; that for `CC(C)(C)c1ccc2c(c1)-c1c(c(C(=O)C(C#N)C(=O)Nc3ccccc3)nn1-c1ccccc1)CO2` (stereo unspecified) was 270 to 273 °C.

`O=C1c2ccccc2C(=O)N1Cc1ccc(OC(F)(F)F)cc1` had a melting point of 82.1 to 83.6 °C. The value for `CCOC(=O)Cc1cc(C(=O)OC)ccc1NC(C)=O` was 119 °C; that for `O=C1c2ccccc2C(=O)N1CC(=O)N1c2ccc(Cl)cc2N(Cc2ccccc2)C(=O)[C@H]2CCC[C@H]21` (relative stereo) was 241 to 243 °C. As for `CC(C#N)(C(O)c1ccc(Cl)cc1Cl)n1cncn1` (stereo unspecified), the melting point was in the range of 164 to 168 °C. In turn, `CC(=O)Oc1ccc(C(=O)Nc2cccc(OCc3cccnc3)c2)cc1C(C)(C)C` registered a melting point of 58 to 62 °C. The value for `CCOC(=O)c1c[nH]c2cc(C(=O)NC3CCN(Cc4ccccc4)CC3)nn2c1=O` was 264 to 266 °C; that for `CCOC(=O)C(CC(C)C)NC(=O)C(Cc1ccccc1)NC(=O)CNC(=O)CNC(=O)C(Cc1ccc(OCc2ccccc2)cc1)NC(=O)OC(C)(C)C` (stereo unspecified) was 149 to 152 °C; that for `COC(=O)c1cccnc1Oc1ccc(F)cc1` was 97 to 99 °C. `CCOC(=O)N1CCC(Nc2nc3ccccc3n2Cc2ccc(CO)o2)CC1` displayed a melting point of 138 to 140 °C.

Compound `C1=C(CCCc2ccccc2)CCN(Cc2nc3ccccc3[nH]2)C1` showed a melting point of 131 to 132 °C. The compound `Cc1c(C(=O)Nc2ccc(-c3ccc(S(=O)(=O)N(C)C(C(=O)O)C(C)C)cc3)cc2)oc2cccc(C(O)CO)c12` (stereo unspecified) yielded a melting point of 222 to 225 °C. The value for `COC(=O)N1CC(C(N)=O)C(c2ccc(OC)c(OC3CCCC3)c2)C1` (stereo unspecified) was 130 to 132 °C; that for `CC(=O)c1cc2c(cc1Cl)C(C)(C)CC2(C)C` was 69 to 71 °C.
